Source: BindingDB's records for doi:10.1016/j.bmcl.2006.01.061 (Institute of Genomics and Integrative Biology, 2006)
Square brackets hold non-standard residues; d marks the D form. Peptide text beside a SMILES is read from it. Trp(5-OH) = N[C@@H](Cc1c[nH]c2ccc(O)cc12)C(=O)O; NMeW = CN[C@@H](Cc1c[nH]c2ccccc12)C(=O)O; Orn = NCCC[C@H](N)C(=O)O

Target: Angiotensin-converting enzyme (Bos taurus)
Experiment: Inhibition of ACE in bovine kidney

| IC50 [µM] | SMILES |
| --- | --- |
| 10 | NCCC[C@H](NC(=O)CCc1nc2ccccc2[nH]1)C(=O)N1CCC[C@H]1C(=O)O [BPA-Lys-Pro] |
| 4 | NCCC[C@H](NC(=O)[C@@H](N)Cc1c[nH]c2ccc(O)cc12)C(=O)N1CCC[C@H]1C(=O)O [HTP-Orn-Pro] (H-[Trp(5-OH)]-[Orn]-Pro-OH) |
| 10 | CN[C@@H](Cc1c[nH]c2ccccc12)C(=O)N[C@@H](CCCN)C(=O)N1CCC[C@H]1C(=O)O [MTP-Orn-Pro] (H-[NMeW]-[Orn]-Pro-OH) |
